Assay results published in ChEMBL document CHEMBL5143564, “PES derivative PESA is a potent tool to globally profile cellular targets of PES” (Bioorg Med Chem Lett, 2022).
Calls of active or inactive are those of the source. No cut-off for these calls is given here.

How the values were obtained:
[1] = molecular target: T1, Plastin-2 (Homo sapiens) (UniProt P13796); test: Binding affinity to plastin-2 in human DOHH-2 cells measured after 6 hrs by pull-down assay; assay type: cell-based; settings: DDE = dose-dependent effect
T1 sequence (whole entry): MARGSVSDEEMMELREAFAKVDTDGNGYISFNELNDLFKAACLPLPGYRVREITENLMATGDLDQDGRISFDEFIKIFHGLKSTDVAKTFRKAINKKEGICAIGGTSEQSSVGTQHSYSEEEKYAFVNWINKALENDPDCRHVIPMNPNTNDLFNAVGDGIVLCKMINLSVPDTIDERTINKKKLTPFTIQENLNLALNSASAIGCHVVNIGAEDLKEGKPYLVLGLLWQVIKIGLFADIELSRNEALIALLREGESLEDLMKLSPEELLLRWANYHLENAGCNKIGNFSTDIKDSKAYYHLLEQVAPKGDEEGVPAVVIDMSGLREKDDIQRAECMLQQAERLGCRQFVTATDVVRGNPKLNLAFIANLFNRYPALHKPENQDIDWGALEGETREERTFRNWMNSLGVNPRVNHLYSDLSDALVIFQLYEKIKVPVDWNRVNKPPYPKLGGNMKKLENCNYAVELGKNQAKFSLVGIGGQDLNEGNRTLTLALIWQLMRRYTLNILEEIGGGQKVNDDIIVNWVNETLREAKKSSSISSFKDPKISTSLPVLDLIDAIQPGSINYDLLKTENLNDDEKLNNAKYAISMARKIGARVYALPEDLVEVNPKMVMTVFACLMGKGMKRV

[2] = molecular target: T2, Protein disulfide-isomerase A4 (Homo sapiens) (UniProt P13667); test: Binding affinity to PDIA4 in human MDA-MB-453 cells measured after 6 hrs by pull-down assay; assay type: cell-based; settings: dose <= 20.0 µM, DDE = dose-dependent effect
T2 sequence (whole entry): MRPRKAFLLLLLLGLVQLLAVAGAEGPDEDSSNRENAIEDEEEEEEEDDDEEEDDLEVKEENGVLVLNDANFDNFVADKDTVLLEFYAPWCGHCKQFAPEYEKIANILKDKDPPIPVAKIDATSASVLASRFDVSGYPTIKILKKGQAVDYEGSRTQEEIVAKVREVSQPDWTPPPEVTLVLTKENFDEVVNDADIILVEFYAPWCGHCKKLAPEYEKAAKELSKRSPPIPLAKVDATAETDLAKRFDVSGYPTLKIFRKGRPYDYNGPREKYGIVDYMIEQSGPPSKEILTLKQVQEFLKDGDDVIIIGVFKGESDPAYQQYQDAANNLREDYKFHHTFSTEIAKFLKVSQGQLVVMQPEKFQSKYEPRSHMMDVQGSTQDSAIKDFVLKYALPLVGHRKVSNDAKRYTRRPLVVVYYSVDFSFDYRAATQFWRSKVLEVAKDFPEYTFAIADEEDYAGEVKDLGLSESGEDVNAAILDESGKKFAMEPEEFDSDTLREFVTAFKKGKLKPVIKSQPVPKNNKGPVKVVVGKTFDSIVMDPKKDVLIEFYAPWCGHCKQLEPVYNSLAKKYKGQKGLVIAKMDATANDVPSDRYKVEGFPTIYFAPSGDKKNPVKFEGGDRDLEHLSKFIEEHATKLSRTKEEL

[3] = molecular target: T3, Peroxiredoxin-6 (Homo sapiens) (UniProt P30041); test: Binding affinity to PRDX6 in human DOHH-2 cells measured after 6 hrs by pull-down assay; assay type: cell-based; settings: DDE = dose-dependent effect
T3 sequence (whole entry): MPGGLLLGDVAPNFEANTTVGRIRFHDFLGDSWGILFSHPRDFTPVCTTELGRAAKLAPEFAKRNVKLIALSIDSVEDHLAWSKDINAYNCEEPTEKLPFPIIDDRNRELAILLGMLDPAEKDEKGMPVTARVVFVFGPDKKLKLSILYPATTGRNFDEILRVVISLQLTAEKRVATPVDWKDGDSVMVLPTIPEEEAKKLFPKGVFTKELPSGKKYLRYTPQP

[4] = GSH reactivity in pH 7.4 buffer assessed as GSH adduct formation by measuring half life at 50 uM by near-UV absorbance spectra analysis; assay type: physicochemical; settings: pH 7.4, 50 µM
[5] = GSH reactivity in pH 7.4 buffer assessed as GSH adduct formation at 1 mM by HPLC analysis; assay type: physicochemical; settings: pH 7.4, 1000 µM
[6] = molecular target: Elongation factor 2 (Homo sapiens) (UniProt P13639); test: Binding affinity to elongation factor 2 in human DOHH-2 cells by MS analysis; assay type: cell-based
[7] = system: Jurkat; test: Cytotoxicity against human Jurkat T cells measured after 72 hrs; assay type: functional, cell-based
[8] = system: DOHH-2; test: Induction of apoptosis in human DOHH-2 cells assessed as increase in cleaved caspase-3 expression at 8 uM measured after 4 to 24 hrs by Western blot analysis; assay type: functional, cell-based; settings: time 4-24 hrs
[9] = molecular target: T3, Peroxiredoxin-6 (Homo sapiens); test: Binding affinity to PRDX6 in human MDA-MB-453 cells measured after 6 hrs by pull-down assay; assay type: cell-based; settings: dose <= 20.0 µM, DDE = dose-dependent effect
[10] = molecular target: T4, Peroxiredoxin-1 (Homo sapiens) (UniProt Q06830); test: Binding affinity to PRDX1 in human MDA-MB-453 cells measured after 6 hrs by pull-down assay; assay type: cell-based; settings: dose <= 20.0 µM, DDE = dose-dependent effect
T4 sequence (whole entry): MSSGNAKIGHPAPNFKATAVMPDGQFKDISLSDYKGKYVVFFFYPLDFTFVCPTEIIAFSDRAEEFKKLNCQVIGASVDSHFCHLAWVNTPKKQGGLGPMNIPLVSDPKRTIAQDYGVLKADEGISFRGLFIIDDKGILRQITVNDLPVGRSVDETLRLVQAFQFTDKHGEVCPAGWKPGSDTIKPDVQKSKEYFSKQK

[11] = species on record: Homo sapiens; test: Binding affinity to ADP-bound full-length human HSP70 assessed as cysteine adduct formation at SBDalpha domain by measuring half life at 1 mM by fluorescence spectra analysis
[12] = molecular target: T1, Plastin-2 (Homo sapiens); test: Binding affinity to plastin-2 in human MDA-MB-453 cells measured after 6 hrs by pull-down assay; assay type: cell-based; settings: dose <= 20.0 µM, DDE = dose-dependent effect
[13] = system: DOHH-2; test: Induction of apoptosis in human DOHH-2 cells assessed as increase in cleaved caspase-3 expression at 0.5 to 8 uM measured after 24 hrs by Western blot analysis; assay type: functional, cell-based; settings: dose 0.5-8 µM
[14] = molecular target: T2, Protein disulfide-isomerase A4 (Homo sapiens); test: Binding affinity to PDIA4 in human DOHH-2 cells by MS analysis; assay type: cell-based
[15] = molecular target: T4, Peroxiredoxin-1 (Homo sapiens); test: Binding affinity to PRDX1 in human DOHH-2 cells by MS analysis; assay type: cell-based
[16] = molecular target: Glutathione S-transferase P (Homo sapiens) (UniProt P09211); test: Binding affinity to GSTP1 in human DOHH-2 cells by MS analysis; assay type: cell-based
Glutathione S-transferase P (Homo sapiens), sequence (P09211 2-210 limits assumed): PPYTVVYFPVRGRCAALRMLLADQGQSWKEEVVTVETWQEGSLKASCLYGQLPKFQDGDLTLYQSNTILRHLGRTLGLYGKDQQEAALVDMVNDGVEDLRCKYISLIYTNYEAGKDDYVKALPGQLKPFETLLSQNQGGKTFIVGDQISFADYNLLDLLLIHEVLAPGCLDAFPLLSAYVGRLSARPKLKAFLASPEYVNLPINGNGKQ

[17] = system: MDA-MB-453; test: Cytotoxicity against human MDA-MB-453 cells measured after 72 hrs; assay type: functional, cell-based

Activity [1]: Dde
Activity [2]: Dde
Activity [3]: Dde
t1/2 [4]: 3.91 min
Activity [5]: Active
Activity [6]: Active
Activity [9]: Dde
Activity [10]: Dde
T1/2 [11]: 1.53 h
Activity [12]: Dde
Activity [14]: Active
Activity [15]: Active
Activity [16]: Active
Structure (SMILES): C#Cc1cccc(C#CS(N)(=O)=O)c1
Activity [7]: Active
Activity [8]: Active
Activity [13]: Active
Activity [17]: Active
